Assay results: patent US3955959A, “Herbicide for use in transplanted rice” (priority 1974, dated 1976)
In brackets after ≈: the same amount, converted by molar mass. Several values for one entry are separate records, joined by “and”; a condition that tells them apart may be missing. Identical values can stand only once.

Columns and labels:
[1] = tested on: Perennials Ek and Sa (Eleocharis kuroguwai, Sagittaria aginashi); assay: Example 1 field test, perennial weed control, Iri, Korea; type: in vivo; conditions: for % Weed Control (Perennials Ek and Sa): weed weight at 63 DAT
Text: In the field test 48 day-old seedlings (Watanabe variety) were transplanted to plots 2.5 × 6 m. seeded with the weed seeds indicated in Table 1. At 5 and 10 DAT periods, the herbicides were applied to the plants (now at the 1.2 and 2.0 leaf stage, respectively, of grass weed) at the indicated rate in kilograms per hectare (kg/ha). The weed control and rice injury results for 3 replications are reported in percentages as of the indicated times of observation. The percentages given in the "Perennials" column are based on the weight of the weeds at 63 DAT, i.e., 42 gms/3.6 m^2 for the weedy check.

[2] = tested on: Grass: Ec and Ecol (Echinochloa crusgalli, Echinochloa colonum); assay: Example 3 field test on Dapog rice, weed control, Munoz, Philippines; type: in vivo; conditions: obs. 42 DAT
Text: (§1) Treatments were replicated four times.

[3] = tested on: Sedges: Cd, Ci, Fl (Cyperus difformis, Cyperus iria, Fimbristylis littoralis); assay: as above; type: in vivo; conditions: obs. 42 DAT
Text: as §1

[4] = tested on: Grass: Ec and Ecol (Echinochloa crusgalli, Echinochloa colonum); assay: Example 4 field test on ordinary rice, weed control, Munoz, Philippines; type: in vivo; conditions: obs. 36 DAT
Text: as §1

[5] = tested on: Sedges: Cd, Ci, Fl (Cyperus difformis, Cyperus iria, Fimbristylis littoralis); assay: as above; type: in vivo; conditions: obs. 36 DAT
Text: as §1

[6] = tested on: ordinary transplanted rice; assay: Example 4 field test, crop injury; conditions: obs. 36 DAT
Experimental: (§2) In the tests described in the tables below, the herbicides were formulated and used in granular form in conventional manner. […] The commercial herbicide used was a granular product having 5% active ingredient.
(§3) In the field tests of the herbicide of this invention with transplanted rice, the rice seedlings were grown in conventional manner, by seeding the rice in a typical seedbed of sandy loam to clay soil of the country wherein the test was conducted. For laboratory and greenhouse work the seedlings were obtained by seeding rice in a mixture of soil, e.g., Ray silt loam, and peat in wood flats. For purposes of testing the herbicides on younger rice seedlings (infant or Dapog) the rice was usually allowed to grow for 6-15 days before lifting for transplanting. Older (ordinary) rice plants were usually grown for a period of about 2-3 weeks, or as much as about 7 weeks before lifting. Since the period of growth is dependent upon climatic conditions, a better measure of when to transplant the rice seedling is the leaf stage of growth; for infant or Dapog rice the seedling is lifted at the 1.5-2 leaf stage of growth, and for ordinary seedlings at the 2.5-5 leaf stage. The seedlings were then transplanted to the test plots for evaluation of the herbicide for injury against weed species present with the transplanted rice. The herbicides were then applied to the growth medium of the weeds and transplant rice, either preemergent or postemergent with respect to the weeds and postemergent with respect to the transplanted rice. Application times are designated in the tables as "DAT", meaning "days after transplant". Application rates given in the tables refer to the amount of active ingredient used.
(§4) In this example comparative field tests were conducted with Herbicides A and B on ordinary transplanted rice at Munoz, Philippines.
(§5) Twenty-one (21) day-old ordinary wet bed seedlings of the Fortuna variety were transplanted to field plots and Herbicides A and B applied at 5 DAT and 14 DAT. The field plots were overseeded with barnyardgrass (E. crusgalli) at 2 kgs/ha. Treatments were replicated four times.

[7] = tested on: ordinary transplanted rice; assay: Example 4 field test, rice yield; type: in vivo, rice (Fortuna variety); conditions: in vivo
Experimental: as §2, §3, §4, §5

[8] = tested on: Ec (Echinochloa crusgalli); assay: Example 5 field test, weed control, JAAPR, Japan; type: in vivo
[9] = tested on: Mv (Monochoria vaginalis); assay: Example 5 field test, weed control, JAAPR, Japan; type: in vivo
[10] = tested on: weeds Ec, Ann. Cyp, Mv, Obw, Ea; assay: Example 5 field test, average weed control, JAAPR, Japan
Experimental: as §2, §3
The rice seedlings were grown to the 1.7 leaf stage for infant seedlings and to the 5.5 leaf stage for ordinary seedlings. Two days after puddling the soil in which the seedlings were to be transplanted, both infant and ordinary seedlings were transplanted into plots 8.5 m^2.
The weed symbol "Obw" represents "other broadleaf weeds" of unspecified identity. Results presented in Table 5 represent the average of 2 replications.

[11] = Example 10 fish toxicity, Japanese protocol; type: in vivo, carp; conditions: carp, in vivo, read-out: Medium Lethal Concentration
Experimental: In view of the importance of fish toxicological considerations, tests were conducted, using carp according to the Japanese protocol, to compare toxicity data for Herbicides A and B; results of those tests are shown in Table 10.

[12] = tested on: weeds in transplanted rice; assay: Field tests / general herbicidal activity in transplanted rice; type: in vivo
[13] = tested on: weeds in ordinary transplanted rice; assay: Example 4 field test, overall weed control; type: in vivo
Text: as §1

[14] = 1.0 kg/ha, 15 DAT, infant seedlings
[15] = 1.0 kg/ha, 15 DAT, ordinary seedlings
[16] = .25 kg/ha, 2 DAT, infant seedlings
[17] = .25 kg/ha, 2 DAT, ordinary seedlings
[18] = .5 kg/ha, 7 DAT, infant seedlings
[19] = .5 kg/ha, 7 DAT, ordinary seedlings

CCCCOCN(C(=O)CCl)c1c(C)cccc1C(C)(C)C [Herbicide A, n-(butoxymethyl)-6'-tert-butyl-2-chloro-o-acetotoluidide]
% Weed Control (Perennials Ek and Sa) ([1]; 5 DAT, 1.0 kg/ha): 68% | % Weed Control (Perennials Ek and Sa) ([1]; 5 DAT, 2.0 kg/ha): 100% | % Weed Control (Perennials Ek and Sa) ([1]; 5 DAT, .25 kg/ha): 0% | % Weed Control (Perennials Ek and Sa) ([1]; 5 DAT, .5 kg/ha): 55% | % Weed Control (Perennials Ek and Sa) ([1]; 10 DAT, 1.0 kg/ha): 0% | % Weed Control (Perennials Ek and Sa) ([1]; 10 DAT, 2.0 kg/ha): 0% | % Weed Control (Perennials Ek and Sa) ([1]; 10 DAT, .25 kg/ha): 0% | % Weed Control (Perennials Ek and Sa) ([1]; 10 DAT, .5 kg/ha): 2% | perennial control ([1]; at 14 DAT and at rates less than 2 kgs/ha applied 5 DAT): less than adequate | % Weed control, Grass (Ec and Ecol) ([2]; 5 DAT, 1.0 kg/ha): 100% | % Weed control, Grass (Ec and Ecol) ([2]; 5 DAT, 2.0 kg/ha): 100% | % Weed control, Grass (Ec and Ecol) ([2]; 5 DAT, .25 kg/ha): 100% | % Weed control, Grass (Ec and Ecol) ([2]; 5 DAT, .5 kg/ha): 100% | % Weed control, Grass (Ec and Ecol) ([2]; 14 DAT, 1.0 kg/ha): 50% | % Weed control, Grass (Ec and Ecol) ([2]; 14 DAT, 2.0 kg/ha): 90% | % Weed control, Grass (Ec and Ecol) ([2]; 14 DAT, .25 kg/ha): 0% | % Weed control, Grass (Ec and Ecol) ([2]; 14 DAT, .5 kg/ha): 50% | % Weed control, Sedges (Cd, Ci, Fl) ([3]; 5 DAT, 1.0 kg/ha): 100% | % Weed control, Sedges (Cd, Ci, Fl) ([3]; 5 DAT, 2.0 kg/ha): 100% | % Weed control, Sedges (Cd, Ci, Fl) ([3]; 5 DAT, .25 kg/ha): 100% | % Weed control, Sedges (Cd, Ci, Fl) ([3]; 5 DAT, .5 kg/ha): 100% | % Weed control, Sedges (Cd, Ci, Fl) ([3]; 14 DAT, 1.0 kg/ha): 70% | % Weed control, Sedges (Cd, Ci, Fl) ([3]; 14 DAT, 2.0 kg/ha): 70% | % Weed control, Sedges (Cd, Ci, Fl) ([3]; 14 DAT, .25 kg/ha): 0% | % Weed control, Sedges (Cd, Ci, Fl) ([3]; 14 DAT, .5 kg/ha): 70% | % Weed control, Grass (Ec and Ecol) ([4]; 5 DAT, 1.0 kg/ha): 100% | % Weed control, Grass (Ec and Ecol) ([4]; 5 DAT, 2.0 kg/ha): 100% | % Weed control, Grass (Ec and Ecol) ([4]; 5 DAT, .25 kg/ha): 100% | % Weed control, Grass (Ec and Ecol) ([4]; 5 DAT, .5 kg/ha): 100% | % Weed control, Grass (Ec and Ecol) ([4]; 14 DAT, 1.0 kg/ha): 80% | % Weed control, Grass (Ec and Ecol) ([4]; 14 DAT, 2.0 kg/ha): 80% | % Weed control, Grass (Ec and Ecol) ([4]; 14 DAT, .25 kg/ha): 60% | % Weed control, Grass (Ec and Ecol) ([4]; 14 DAT, .5 kg/ha): 80% | % Weed control, Sedges (Cd, Ci, Fl) ([5]; 5 DAT, 1.0 kg/ha): 100% | % Weed control, Sedges (Cd, Ci, Fl) ([5]; 5 DAT, 2.0 kg/ha): 100% | % Weed control, Sedges (Cd, Ci, Fl) ([5]; 5 DAT, .25 kg/ha): 100% | % Weed control, Sedges (Cd, Ci, Fl) ([5]; 5 DAT, .5 kg/ha): 100% | % Weed control, Sedges (Cd, Ci, Fl) ([5]; 14 DAT, 1.0 kg/ha): 60% | % Weed control, Sedges (Cd, Ci, Fl) ([5]; 14 DAT, 2.0 kg/ha): 60% | % Weed control, Sedges (Cd, Ci, Fl) ([5]; 14 DAT, .25 kg/ha): 60% | % Weed control, Sedges (Cd, Ci, Fl) ([5]; 14 DAT, .5 kg/ha): 50% | Crop Injury (%) ([6]; 5 DAT, 1.0 kg/ha): 0% | Crop Injury (%) ([6]; 5 DAT, 2.0 kg/ha): 60% | Crop Injury (%) ([6]; 5 DAT, .25 kg/ha): 0% | Crop Injury (%) ([6]; 5 DAT, .5 kg/ha): 0% | Crop Injury (%) ([6]; 14 DAT, 1.0 kg/ha): 0% | Crop Injury (%) ([6]; 14 DAT, 2.0 kg/ha): 30% | Crop Injury (%) ([6]; 14 DAT, .25 kg/ha): 0% | Crop Injury (%) ([6]; 14 DAT, .5 kg/ha): 0% | Yield (% of H.W. Check) [7]: 129% and 136% and 123% and 101% and 90% and 97% and 100% | rice yield vs hand weeded check [7]: only slightly lower than the hand weeded check | rice yield vs hand weeded control [7]: slightly more than the hand weeded control | % Weed Control (Ec) [8, 14]: 100% | % Weed Control (Ec) [8, 15]: 100% | % Weed Control (Ec) [8, 16]: 100% | % Weed Control (Ec) [8, 17]: 100% | % Weed Control (Ec) [8, 18]: 100% | % Weed Control (Ec) [8, 19]: 100% | control of Ec in words ([8]; both plots, all rates): controlled | % Weed Control (Mv) [9, 14]: 67% | % Weed Control (Mv) [9, 15]: 62% | % Weed Control (Mv) [9, 16]: 80% | % Weed Control (Mv) [9, 17]: 80% | % Weed Control (Mv) [9, 18]: 60% | % Weed Control (Mv) [9, 19]: 62% | weed control vs Herbicide B at 1.5 kg/ha 7 DAT ([10]; 0.25 kg/ha, 2 DAT, Ec, Ann. Cyp, Obw and average, ordinary and infant): equal to or superior | % Weed Control, Avg. [10, 14]: 90% | % Weed Control, Avg. [10, 15]: 90% | % Weed Control, Avg. [10, 16]: 93% | % Weed Control, Avg. [10, 17]: 92% | % Weed Control, Avg. [10, 18]: 81% | % Weed Control, Avg. [10, 19]: 84% | fold more active than Herbicide B ([10]; average weed control, 7 DAT): at least 3 fold | LC50 at 48 h ([11]; 48 hours): 1.8 µg/mL (≈ 5.52 µM) | LC50 at 96 h ([11]; 96 hours): 1.4 µg/mL (≈ 4.3 µM) | latest/optimum application stage of weeds ([12]; field tests): 2-2.5 leaf stage | control of undesirable vegetation ([12]; monocotyledons and dicotyledons): fair to excellent control | herbicidal activity in transplanted rice ([12]; presence of transplanted rice): superior herbicidal activity | selectivity vs Herbicide B in transplant rice ([12]; transplant rice cultures): more selective | control of all weeds ([13]; 5 DAT): complete control of all weeds | weed control in words ([13]; 14 DAT): dropped off | weed control vs Herbicide B ([13]; 14 DAT): more weed control
